± gives the expanded uncertainty stated by the source.
Conditions: 101.33 kPa, Liquid, Vibrating tube method

## CN(C)C=O [dimethylformamide]
293.15 K
  mass density: 948.72 ± 0.07 kg/m3
298.15 K
  mass density: 943.86 ± 0.07 kg/m3
303.15 K
  mass density: 939 ± 0.07 kg/m3
308.15 K
  mass density: 934.08 ± 0.07 kg/m3
313.15 K
  mass density: 929.13 ± 0.08 kg/m3
318.15 K
  mass density: 924.06 ± 0.08 kg/m3
323.15 K
  mass density: 918.96 ± 0.08 kg/m3

## CC(=O)N(C)C [N,N-dimethylethanamide]
293.15 K
  mass density: 940.92 ± 0.23 kg/m3
298.15 K
  mass density: 936.3 ± 0.23 kg/m3
303.15 K
  mass density: 931.62 ± 0.23 kg/m3
308.15 K
  mass density: 926.89 ± 0.23 kg/m3
313.15 K
  mass density: 922.09 ± 0.23 kg/m3
318.15 K
  mass density: 917.23 ± 0.23 kg/m3
323.15 K
  mass density: 912.23 ± 0.23 kg/m3

## CCNC=O [N-ethylformamide]
293.15 K
  mass density: 951.59 ± 0.23 kg/m3
298.15 K
  mass density: 947.48 ± 0.23 kg/m3
303.15 K
  mass density: 943.29 ± 0.23 kg/m3
308.15 K
  mass density: 939.04 ± 0.23 kg/m3
313.15 K
  mass density: 934.78 ± 0.23 kg/m3
318.15 K
  mass density: 930.45 ± 0.23 kg/m3
323.15 K
  mass density: 926.06 ± 0.23 kg/m3

## CNC=O [N-methylformamide]
293.15 K
  mass density: 1003.35 ± 0.23 kg/m3
298.15 K
  mass density: 998.91 ± 0.23 kg/m3
303.15 K
  mass density: 994.49 ± 0.23 kg/m3
308.15 K
  mass density: 990.01 ± 0.23 kg/m3
313.15 K
  mass density: 985.47 ± 0.23 kg/m3
318.15 K
  mass density: 980.88 ± 0.23 kg/m3
323.15 K
  mass density: 976.24 ± 0.23 kg/m3

## CCCCN(C=O)CCCC [N,N-dibutylformamide]
293.15 K
  mass density: 879.05 ± 0.23 kg/m3
298.15 K
  mass density: 875.12 ± 0.23 kg/m3
303.15 K
  mass density: 871.17 ± 0.23 kg/m3
308.15 K
  mass density: 867.15 ± 0.23 kg/m3
313.15 K
  mass density: 863.11 ± 0.23 kg/m3
318.15 K
  mass density: 859.01 ± 0.23 kg/m3
323.15 K
  mass density: 854.82 ± 0.23 kg/m3

Source: the NIST ThermoML archive (doi:10.1021/je5002945)
